Measurements reported in US8569509B2, “Thiazole-4-carboxylic acid esters and thioesters as plant protection agents” (priority 2008, dated 2013).
Read-outs that look alike come from different tables or passages of the source.

Legend:
Plasmopara viticola [1] = experiment: Plasmopara test (grapevine)/protective; type: in vivo; details: grapevine plants, protective, application rate 1 ppm, evaluation 6 days after inoculation
Description: Plasmopara Test (Grapevine)/Protective
After the spray coating has dried on, the plants are inoculated with an aqueous spore suspension of Plasmopara viticola and then remain in an incubation cabin at about 20° C. and 100% relative atmospheric humidity for 1 day. The plants are then placed in a greenhouse at about 21° C. and about 90% atmospheric humidity for 4 days. The plants are then moistened and placed in an incubation cabin for 1 day.
Evaluation is carried out 6 days after the inoculation.

[2] = log P determination (HPLC, calibration with unbranched alkan-2-ones); type: physicochemical
Description: The calibration is carried out using unbranched alkan-2-ones (having 3 to 16 carbon atoms) with known log P values (determination of the log P values by the retention times using linear interpolation between two successive alkanones). The lambda-maX values were determined in the maxima of the chromatographic signals using the UV spectra from 200 nm to 400 nm.

Plasmopara viticola [3] = experiment: Plasmopara test (grapevine)/curative; type: in vivo; details: grapevine plants, curative, application rate 100 ppm, evaluation 6 days after inoculation
Phytophthora infestans = type: in vivo; details: tomato plants, protective, application rate 10 ppm, evaluation 3 days after inoculation
[4] = pH 2.7, read-out: log P (pH 2.7)
[5] = reversed-phase C18 HPLC column, * LC-MS determination in the acidic range at pH 2.7, mobile phases 0.1% aqueous formic acid and acetonitrile (0.1% formic acid), linear gradient 10% to 95% acetonitrile, reversed-phase C 18 HPLC, read-out: log p
[6] = * LC-MS determination in the acidic range at pH 2.7, mobile phases 0.1% aqueous formic acid and acetonitrile (0.1% formic acid), linear gradient 10% to 95% acetonitrile, reversed-phase C 18 HPLC

Structure (SMILES)	log p [2, 6]	further results
Cc1cc(C(F)(F)F)nn1CC(=O)N1CCC(c2nc(C(=O)OC3CCCc4ccccc43)cs2)CC1 (stereo not shown) [Ex. 6]		Efficacy in % (Plasmopara viticola [1]): 91%; chromatographic logP ([2]; reversed-phase (C18) HPLC column, ** determination in the acidic range, pH 2.3, 0.1% aqueous phosphoric acid and acetonitrile, linear gradient 10% to 95% acetonitrile, read-out: log p): 4.01; Efficacy in % (Plasmopara viticola [3]): 84%
Cc1cc(C(F)(F)F)nn1CC(=O)N1CCC(c2nc(C(=O)OCc3ccccc3Cl)cs2)CC1 [Ex. 23]		chromatographic logP ([2]; reversed-phase (C18) HPLC column, * LC-MS determination in the acidic range, pH 2.7, 0.1% aqueous formic acid and acetonitrile, linear gradient 10% to 95% acetonitrile, read-out: log p): 3.7; Efficacy in % (Phytophthora infestans): 94%
Cc1cc(C(F)(F)F)nn1CC(=O)N1CCC(c2nc(C(=O)OCc3ccccc3Br)cs2)CC1 [compound 820, 2-Bromobenzyl 2-(1-{[5-methyl-3-(trifluoromethyl)-1H-pyrazol-1-yl]acetyl}piperidin-4-yl)-1,3-thiazole-4-carboxylate]		chromatographic logP [2, 4]: 3.8; chromatographic logP [2, 5]: 3.8
Cc1cc(C(F)(F)F)nn1CC(=O)N1CCC(c2nc(C(=O)Oc3ccccc3-c3ccccc3)cs2)CC1 [compound 821]	3.96*	
Cc1cc(C(F)(F)F)nn1CC(=O)N1CCC(c2nc(C(=O)Oc3cccc(Oc4ccccc4)c3)cs2)CC1 [compound 824]	4.18*	
Cc1cc(C(F)(F)F)nn1CC(=O)N1CCC(c2nc(C(=O)Oc3ccc(Oc4ccccc4)cc3)cs2)CC1 [compound 825]	4.14*	
C#CC1(OC(=O)c2csc(C3CCN(C(=O)Cn4nc(C(F)(F)F)cc4C)CC3)n2)CCCCC1 [compound 826]	3.76*	
Cc1cc(C(F)(F)F)nn1CC(=O)N1CCC(c2nc(C(=O)OC3(C#N)CCCCC3)cs2)CC1 [compound 827]	3.33*	
Cc1cc(C(F)(F)F)nn1CC(=O)N1CCC(c2nc(C(=O)OC3CCC(C(C)(C)C)CC3)cs2)CC1 (stereo not shown) [compound 828]	5.19*	
Cc1cc(C(F)(F)F)nn1CC(=O)N1CCC(c2nc(C(=O)OC3CC(C)CCC3C(C)C)cs2)CC1 (stereo not shown) [compound 829]	5.22*	
Cc1cc(C(F)(F)F)nn1CC(=O)N1CCC(c2nc(C(=O)OC3CCC4(CC3)OCCO4)cs2)CC1 [compound 830]	2.90*	
Cc1cc(C(F)(F)F)nn1CC(=O)N1CCC(c2nc(C(=O)OC3C(C)CCCC3C)cs2)CC1 (stereo not shown) [compound 831]	4.40*	
Cc1cc(C(F)(F)F)nn1CC(=O)N1CCC(c2nc(C(=O)OC3CCCCC3C)cs2)CC1 (stereo not shown) [compound 832]	4.12*	
CCCCCCCCOC(=O)c1csc(C2CCN(C(=O)Cn3nc(C(F)(F)F)cc3C)CC2)n1 [compound 833]	5.02*	
COc1ccc(COC(=O)c2csc(C3CCN(C(=O)Cn4nc(C(F)(F)F)cc4C)CC3)n2)c(OC)c1 [compound 834]	3.33*	
Cc1cc(C(F)(F)F)nn1CC(=O)N1CCC(c2nc(C(=O)OCc3c(F)cc(F)cc3F)cs2)CC1 [compound 835]	3.53*	
Cc1cc(C(F)(F)F)nn1CC(=O)N1CCC(c2nc(C(=O)OCc3ccccc3C(F)(F)F)cs2)CC1 [compound 836]	3.84*	
Cc1cc(C(F)(F)F)nn1CC(=O)N1CCC(c2nc(C(=O)OCc3ccccc3OC(F)(F)F)cs2)CC1 [compound 837]	3.95*	
CC(C)(C)c1cc(C(F)(F)F)n(CC(=O)N2CCC(c3nc(C(=O)OCC4CCCCC4)cs3)CC2)n1 [compound 847]	4.75*	
CC(C)(C)c1cc(C(F)(F)F)nn1CC(=O)N1CCC(c2nc(C(=O)OCC3CCCCC3)cs2)CC1 [compound 848]	4.51*	
CC(C)(C)c1cc(C(F)(F)C(F)(F)F)n(CC(=O)N2CCC(c3nc(C(=O)OCC4CCCCC4)cs3)CC2)n1 [compound 849]	5.08*	
CC(C)(C)c1cc(C(F)(F)C(F)(F)F)nn1CC(=O)N1CCC(c2nc(C(=O)OCC3CCCCC3)cs2)CC1 [compound 850]	4.94*	
CC(C)c1cc(C(F)(F)F)n(CC(=O)N2CCC(c3nc(C(=O)OCC4CCCCC4)cs3)CC2)n1 [compound 851]	4.35*	
CCc1cc(C(F)(F)F)n(CC(=O)N2CCC(c3nc(C(=O)OCC4CCCCC4)cs3)CC2)n1 [compound 852]	3.99*	
Cc1cc(C(F)(F)F)nn1CC(=O)N1CCC(c2nc(C(=O)O[C@H]3CCCc4ccccc43)cs2)CC1 [compound 853]	4.06*	
O=C(OC1CCCCC1)c1csc(C2CCN(C(=S)Cn3nc(C(F)F)cc3C(F)F)CC2)n1 [compound 854, Cyclohexyl 2-(1-{2-[3,5-bis(difluoromethyl)-1H-pyrazol-1-yl]ethanethioyl}piperidin-4-yl)-1,3-thiazole-4-carboxylate]		chromatographic logP [2, 4]: 4.23; chromatographic logP [2, 5]: 4.23
Cc1cc(C(F)(F)F)nn1CC(=O)N1CCC(c2nc(C(=O)N(C)C3CCCc4ccccc43)cs2)CC1 (stereo not shown) [drawing 26, reference compound]		Efficacy in % (Plasmopara viticola [1]): 72%
Cc1cc(C(F)(F)F)nn1CC(=O)N1CCC(c2nc(C(=O)N(C)C3CCCc4ccccc43)cs2)CC1 (stereo not shown) [drawing 28, reference compound]		Efficacy in % (Plasmopara viticola [3]): 37%
Cc1cc(C(F)(F)F)nn1CC(=O)N1CCC(c2nc(C(=O)NCc3ccccc3Cl)cs2)CC1 [reference compound]		Efficacy in % (Phytophthora infestans): 65%
